Measured values taken from US5340800A, “Peptide medicaments for the treatment of disease” (priority 1992, dated 1994).
Read-outs that look alike come from different tables or passages of the source. No end group written: not given here.

Tests used:
[1] = system: polymorphonuclear leukocyte adhesion to TNF activated endothelial cells; type: cell-based, human; conditions: for Average % Change of PMN Adhesion to TNF Activated ECs: average over PMN donors (# donors in parentheses)
Method: Leukocyte adherence can be measured using several assays known in the art, and the preferred assay is described by Charo, et al., 1985, Blood, 65:473. Briefly, the assay consists of labelling leukocytes with an appropriate label, incubating them with endothelial cells and determining the number of leukocytes that adhere. Preferably the cells are labelled with a gamma ray emitting isotope and the preferred labels are ^111 Indium-oxide or ^51 chromium.
Leukocytes may be isolated from human donors using standard techniques. This generally consists of isolating blood in a physiologically balanced salt solution containing an appropriate anticoagulant, and separating the leukocytes by an appropriate separation step, preferably on Ficoll-Hypaquegradients. Contaminating erythrocytes can be removed by hypotonic lysis. The resulting leukocytes are suspended in a physiologically buffered solution, pH 7.4. The preferred physiological buffered solution is Hank's balanced salt solution that is calcium and magnesium free.
The isolated leukocytes can then be labelled by incubating them for an appropriate time, generally 15 minutes, with the desired radioisotope at a predetermined concentration. The radiolabelled cells are washed to remove unincorporated label, and then suspended in an appropriate solution to perform the adhesion assay described below.
Endothelial cells can be prepared from a number of sources and by several techniques known in the art. Preferably they are obtained from human umbilical veins using the procedure of Charo et al., above. Generally, endothelial cells are isolated by enzymatic digestion of the umbilical veins using, preferably, collagenase as described by Jaffe, E. A., et al., 1973, J. of Clin. Invest, 52:2745. The cells are grown on an appropriate tissue culture substratum, preferably gelatine-coated surfaces.
The endothelial cells may be grown in a variety of tissue culture media containing appropriate supplements such as an appropriate concentration of fetal calf serum, and other supplements/additives routinely utilized by those skilled in this art that are recognized as being favorable for endothelial cells. The endothelial cells may be passaged with a dilute solution of an appropriate protease, and if desired a metal ion chelator. Preferably a solution consisting of 0.05 to 0.25% trypsin and 0.02% EDTA is used. To ensure that the cells are indeed endothelial cells, they are tested by immunofluorescence for Factor VIII antigen, a known endothelial cell marker.
Leukocyte adherence to endothelial cell monolayers may be determined as follows. Early passage endothelial cells, generally not beyond the fifth passage, are cultured on an appropriate substratum and in a suitable cell culture medium. The culture substratum is preferably pre-coated with an appropriate substance that enhances the adherence of the endothelial cells. Several such substances are known including fibronectin, poly-L-lysine, gelatin and laminin. Fibronectin is preferred. An appropriate culture substratum is a 96 well micro titer plate, and a suitable medium is Medium 199 containing fetal calf serum and other supplements known to be beneficial for the growth and maintenance of endothelial cells that are well known to those skilled in the art. Prior to adding a predetermined number of labelled leukocytes, the endothelial cell monolayer is washed with a physiologically balanced salt solution containing a reduced amount of fetal calf serum, preferably 1%. The preferred solution is RPMI supplemented with 1% fetal calf serum.
The endothelial cell monolayer containing added leukocytes is incubated for a time sufficient to permit maximum adherence of the leukocytes, and preferably this is conducted at 37° C. for 30 minutes in an appropriate cell culture atmosphere. Generally this would consist of growing and incubating the cells for the assay period in 5% CO2, 95% air, and 95% humidity. […]

[2] = system: polymorphonuclear leukocyte migration; experiment: Chemotaxis of polymorphonuclear leukocytes (trans-well, zymosan-activated human serum); type: cell-based; conditions: for inhibition of chemotaxis migration (in words): 10^-4 -10^-5 M
Method: The materials and methods for ascertaining the chemotactic inhibitory properties of peptides are generally known in the art, and the preferred procedure is described by Capsoni, et al., 1989, J. of Immunol. Meth., 120:125. Generally, chemotaxis is determined by positioning the leukocytes and a chemotactic substance on opposite sides of a membrane in appropriate culture media. The preferred apparatus for doing a chemotaxis assay is produced by Costar Corporation, Cambridge, Mass., and is termed the trans-well cell culture apparatus. […] If a substance is being tested for inhibitory activity this can be achieved by combining it with the leukocytes or the chemotactic substance.
The procedure of Capsoni, et al., above, was followed with the following modifications. Leukocytes may be isolated and labelled with ^111 Indium as described for the adhesion assay, above. The cells are resuspended after labelling in an appropriate cell culture medium at about 5×10^6 cells/ml. Next, a desired amount of the cell suspension is mixed with a predetermined amount of the peptide(s) to be tested for inhibitory activity, and the mixture added to an appropriate filter device. Three μm-pore membranes are situated in the wells of a 24 trans-well tissue culture plate. The cell/inhibitory peptide mixture is incubated for a short time at 37° C. to acclimate the cells to the membrane surface, and to provide sufficient time for them to settle onto the membrane surface. Next, inserts are set in wells containing cell culture media. The media contains zymosan-activated human serum at about 0.5%. Zymosan activation generates complement-derived chemotactic factors which attract the leukocytes through the pores of the membrane. This media was also prewarmed for an appropriate time prior to addition to the cell culture wells. After a 30 minute incubation period at 37° C., the number of leukocytes that have migrated through the membrane filter, in the presence or absence of CD18 peptides, is readily determined by counting the amount of ^111 Indium present in the media. This may be facilitated by adding an appropriate detergent at an appropriate concentration to the media in the wells prior to removing an aliquot for counting. In this way, the inhibitory activities of the peptide being tested could be determined.
Many of the materials and methods used to test the inhibitory activity of the CD18 peptides on the chemotactic response of the polymorphonuclear leukocytes are similar or identical to those used to perform the adhesion assays described in Example 1. Polymorphonuclear leukocytes were isolated and labelled with ^111 Indium as described before, and the cells were suspended in RPMI 1640 culture medium at a concentration of 5×10^6 /ml. Next, 75 μl of the cell suspension and 25 μl of media containing a desired concentration of a CD18 peptide were added to trans-well inserts, and the mixture was incubated at 37° C. for 10 minutes.
To the bottom wells of the 24-well plate 0.6 ml of media containing 0.5% zymosan-activated human serum was added. This solution was also warmed to 37° C. for 10 minutes prior to use.
Next, the assay was conducted by incubating the trans-well inserts containing the cell suspension with the desired CD18 peptide in the 24-well plates at 37° C. for 30 minutes. Subsequently, the inserts were removed, and 60 μl of a 10% sodium dodecyl sulphate solution was added to the wells of the 24-well plate. The plates were incubated with gentle shaking at room temperature for 15 minutes, and 110 μl aliquots were removed and the amount of ^111 Indium determined using a gamma-counter.

| Sequence | activity on PMN adhesion at 10^-4 M (in words) ([1]; 10^-4 M) | Average % Change of PMN Adhesion to TNF Activated ECs ([1]; 10^-4 M) [%] | Average % Change of PMN Adhesion to TNF Activated ECs ([1]; 10^-5 M) | Average % Change of PMN Adhesion to TNF Activated ECs ([1]; 10^-6 M) [%] | Average % Change of PMN Adhesion to TNF Activated ECs ([1]; 10^-7 M) | Average % Change of PMN Adhesion to TNF Activated ECs ([1]; 10^-8 M) | inhibition of chemotaxis migration (in words) [2] | percent inhibition (-) or enhancement of polymorphonuclear leukocyte migration ([2]; 10^-4 M, donor 195) [%] | percent inhibition (-) or enhancement of polymorphonuclear leukocyte migration ([2]; 10^-4 M, donor 499) [%] | percent inhibition (-) or enhancement of polymorphonuclear leukocyte migration ([2]; 10^-4 M, donor 591) [%] | percent inhibition (-) or enhancement of polymorphonuclear leukocyte migration ([2]; 10^-4 M, donor 593) [%] | percent inhibition (-) or enhancement of polymorphonuclear leukocyte migration ([2]; 10^-5 M, donor 195) [%] | percent inhibition (-) or enhancement of polymorphonuclear leukocyte migration ([2]; 10^-5 M, donor 499) [%] | percent inhibition (-) or enhancement of polymorphonuclear leukocyte migration ([2]; 10^-5 M, donor 591) [%] | percent inhibition (-) or enhancement of polymorphonuclear leukocyte migration ([2]; 10^-5 M, donor 593) [%] | percent inhibition (-) or enhancement of polymorphonuclear leukocyte migration ([2]; 10^-6 M, donor 195) [%] | percent inhibition (-) or enhancement of polymorphonuclear leukocyte migration ([2]; 10^-6 M, donor 499) [%] | percent inhibition (-) or enhancement of polymorphonuclear leukocyte migration ([2]; 10^-6 M, donor 591) [%] | percent inhibition (-) or enhancement of polymorphonuclear leukocyte migration ([2]; 10^-6 M, donor 593) [%] | concentration of peak inhibitory activity in the PMN adhesion assay [1] |
| --- | --- | --- | --- | --- | --- | --- | --- | --- | --- | --- | --- | --- | --- | --- | --- | --- | --- | --- | --- | --- |
| IPKSAVGELSEDSSNVVHLIKNAYNKLSS [Peptide 3-29, NH2 --Ile--Pro--Lys--Ser--Ala--Val--Gly--Glu--Leu--Ser--Glu--Asp--Ser--Ser--Asn--Val--Val--His--Leu--Ile--Lys--Asn--Ala--Tyr--Asn--Lys--Leu--Ser--Ser--COOH] | show activity | -58 | +12% | -5 | +27% | -2% | marked inhibition | -7 | -33 | -57 | -85 | 11 | 23 | -6 | -17 | -26 | -10 | 11 | -6 | – |
| FDYPSVGQLAHKLAENNIQPIFAVT [Peptide 2-24, NH2 --Phe--Asp--Tyr--Pro--Ser--Val--Gly--Gln--Leu--Ala--His--Lys--Leu--Ala--Glu--Asn--Asn--Ile--Gln--Pro--Ile--Phe--Ala--Val--Thr--COOH] | show activity | -79 | – | -10 | – | -2% | marked inhibition | -48 | -77 | -73 | -89 | -33 | -33 | -9 | -40 | 22 | 0 | -17 | -22 | – |
| VGKQLISGNLDAPEGGLDAMMQVA [Peptide 5-24, NH2 --Val--Gly--Lys--Gln--Leu--Ile--Ser--Gly--Asn--Leu--Asp--Ala--Pro--Glu--Gly--Gly--Leu--Asp--Ala--Met--Met--Gln--Val--Ala--COOH] | – | -17 | – | -13 | – | -6% | – | -52 | 0 | 51 | -33 | -56 | -15 | 55 | 12 | -22 | -26 | 52 | -4 | – |
| YPIDLYYLMDLSYSMLDDLRNVKKLG [Peptide 1-26, NH2 --Tyr--Pro--Ile--Asp--Leu--Tyr--Tyr--Leu--Met--Asp--Leu--Ser--Tyr--Ser--Met--Leu--Asp--Asp--Leu--Arg--Asn--Val--Lys--Lys--Leu--Gly--COOH] | – | -41 | -33% | -6 | +24% | +9% | – | 19 | 8 | -9 | -50 | -41 | -3 | -36 | -19 | -37 | 13 | -39 | -14 | 10^-4 to 10^-5 M |
